In ChEMBL document CHEMBL3351785, “Discovery of nanomolar phosphoinositide 3-kinase gamma (PI3Kγ) inhibitors using ligand-based modeling and virtual screening followed by in vitro analysis” (Eur J Med Chem, 2014):
Non-standard residues stand in square brackets, D forms with d. Residues, ends and D or L forms follow the SMILES beside them. *: point of attachment. Cbz = O=C(OCc1ccccc1)*; Nva = CCC[CH](N)C(=O)O; Bn = c1ccc(C*)cc1

The molecules below were run against T1, Phosphatidylinositol 4,5-bisphosphate 3-kinase catalytic subunit gamma isoform (Homo sapiens, UniProt P48736) (assay: Inhibition of PI3Kgamma (unknown origin) assessed as decrease in fluorescence intensity using phosphorylated substrate at 10 uM).
Target sequence in this assay (P48736 whole entry, looked up, canonical isoform): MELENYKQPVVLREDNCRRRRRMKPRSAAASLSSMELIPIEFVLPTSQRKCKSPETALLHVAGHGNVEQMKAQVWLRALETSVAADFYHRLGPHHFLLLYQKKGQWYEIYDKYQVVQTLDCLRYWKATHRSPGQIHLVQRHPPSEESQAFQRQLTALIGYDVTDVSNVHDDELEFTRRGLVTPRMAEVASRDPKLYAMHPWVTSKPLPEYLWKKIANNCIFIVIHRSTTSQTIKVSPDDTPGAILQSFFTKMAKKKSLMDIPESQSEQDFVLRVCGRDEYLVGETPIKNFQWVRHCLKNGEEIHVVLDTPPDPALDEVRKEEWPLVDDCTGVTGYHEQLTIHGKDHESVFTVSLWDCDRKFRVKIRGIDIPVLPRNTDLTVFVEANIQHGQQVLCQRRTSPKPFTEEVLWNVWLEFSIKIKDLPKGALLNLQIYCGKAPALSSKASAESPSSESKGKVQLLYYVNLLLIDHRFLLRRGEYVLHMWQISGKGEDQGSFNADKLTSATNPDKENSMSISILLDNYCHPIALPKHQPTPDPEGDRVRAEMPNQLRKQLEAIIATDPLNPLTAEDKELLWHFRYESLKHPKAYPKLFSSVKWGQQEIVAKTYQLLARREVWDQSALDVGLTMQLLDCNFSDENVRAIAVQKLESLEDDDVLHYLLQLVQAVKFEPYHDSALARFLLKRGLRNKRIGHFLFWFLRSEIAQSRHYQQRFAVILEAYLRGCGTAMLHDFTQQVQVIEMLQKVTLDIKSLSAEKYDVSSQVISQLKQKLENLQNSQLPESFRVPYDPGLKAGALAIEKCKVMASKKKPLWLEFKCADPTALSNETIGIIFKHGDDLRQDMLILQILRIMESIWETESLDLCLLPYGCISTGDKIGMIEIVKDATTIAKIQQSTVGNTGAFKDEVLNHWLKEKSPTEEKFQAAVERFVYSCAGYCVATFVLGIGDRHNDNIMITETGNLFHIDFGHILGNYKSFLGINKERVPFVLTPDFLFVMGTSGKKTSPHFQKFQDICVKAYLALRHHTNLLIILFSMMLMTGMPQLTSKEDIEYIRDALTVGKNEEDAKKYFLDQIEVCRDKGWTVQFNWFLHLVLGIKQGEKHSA

Row | SMILES | inhibition
1 | O=S(=O)(O)c1ccc(OCCCCCCCCCCOc2ccc(S(=O)(=O)O)cc2)cc1 | 11%
2 | O=C(O)CCC(=O)c1ccc(Oc2ccc(Cl)cc2)cc1 | 51%
3 | COc1cc(C(CC(=O)O)CC(=O)O)ccc1OCc1ccccc1 | 57%
4 | COc1cc2cc(C(=O)O)[nH]c2cc1OCc1ccccc1 | 100%
5 | COc1ccc2cc(C(=O)CCCC(C)C(=O)O)ccc2c1 (stereo unspecified) | 58%
6 | Cc1ccccc1/N=N\c1ccc(/N=N/c2c(O)ccc3cc(S(=O)(=O)O)ccc23)c(C)c1 | 64%
7 | COc1ccc(C(CC(=O)O)c2cc(OC)c(OC)c(OC)c2)cc1OC (stereo unspecified) | 58%
8 | CCCCOc1ccc(CCC(=O)O)cc1OCCCC | 20%
9 | O=C(COc1ccc(Cl)cc1C(=O)O)Nc1cccc(NC(=O)Nc2cccc(S(=O)(=O)F)c2)c1 | 51%
10 | O=C(NC(Cc1ccccc1)C(=O)NC(Cc1ccc(O)cc1)C(=O)O)OCc1ccccc1 (stereo not drawn) (Cbz-Phe-Tyr-OH; configuration not given here) | 34%
11 | COc1ccccc1/N=N/c1c(O)c(S(=O)(=O)O)cc2cc(S(=O)(=O)O)ccc12 | 76%
12 | CCOc1nc(OCC)c2[nH]c(C(=O)O)c(Br)c2n1 | 50%
13 | O=C(O)C(Nc1ccc(Oc2ccc(NC(C(=O)O)c3ccccc3)cc2)cc1)c1ccccc1 (stereo unspecified) | 57%
14 | O=C(O)Cc1ccc(OCCCOc2ccc(CC(=O)O)cc2)cc1 | 24%
15 | O=C(CCCCn1cnc2c(SCc3ccccc3)ncnc21)Nc1ccc(C(=O)O)c(O)c1 | 37%
16 | COc1cc(C[C@@H](CC(=O)c2ccc3c(c2)OCO3)C(=O)O)cc(OC)c1OC | 83%
17 | O=S(=O)(O)c1ccc(OCCCCCCCCOc2ccc(S(=O)(=O)O)cc2)cc1 | 83%
18 | O=C(NC(CSCc1ccccc1)C(=O)NC(Cc1ccc(O)cc1)C(=O)O)OCc1ccccc1 (stereo unspecified) (Cbz-Cys(Bn)-Tyr-OH; configuration not given here) | 40%
19 | CCCCCCCCCCCCCCCC1=NN(c2ccc(S(=O)(=O)O)cc2)C(=O)C1/N=N/c1ccccc1 (stereo unspecified) | 92%
20 | CC(C)CC(NC(=O)OCc1ccccc1)C(=O)NC(Cc1ccc(O)cc1)C(=O)O (stereo not drawn) (Cbz-Leu-Tyr-OH; configuration not given here) | 57%

Row | SMILES | inhibition
21 | COc1ccc(C(CC(=O)c2ccc3c(c2)OCO3)C(=O)O)cc1OC (stereo unspecified) | 94%
22 | O=C(O)c1ccccc1SC(Sc1ccccc1C(=O)O)c1cccc(Cl)c1 | 88%
23 | COc1ccccc1/N=N/c1c(O)ccc2cc(S(=O)(=O)O)ccc12 | 19%
24 | O=S(=O)(O)c1cc(O)c2ccc(Nc3ccc4c(O)cc(S(=O)(=O)O)cc4c3)cc2c1 | 31%
25 | O=C(NC(Cc1ccc(OC(=O)OCc2ccccc2)cc1)C(=O)O)OCc1ccccc1 (stereo unspecified) | 79%
26 | Cc1cc2c(cc1C(=O)CCC(=O)O)CC1(C2)Cc2cc(C)c(C(=O)CCC(=O)O)cc2C1 | 67%
27 | CCN1C(=O)/C(=C\c2cc([N+](=O)[O-])ccc2OCC(=O)O)SC1=S | 81%
28 | CCOc1ccc(Nc2ccc3c(O)cc(S(=O)(=O)O)cc3c2)cc1 | 72%
29 | CSCCC(NCc1c(O)ccc2c(-c3ccccc3)cc(=O)oc12)C(=O)O (stereo unspecified) | 27%
30 | Cc1cc(C(=O)O)c(C)cc1SSc1cc(C)c(C(=O)O)cc1C | 83%
31 | CCCC(NC(=O)OCc1ccccc1)C(=O)NC(Cc1ccc(O)cc1)C(=O)O (stereo unspecified) (Cbz-[Nva]-Tyr-OH; configuration not given here) | 10%
32 | COc1cc(/N=N\c2ccc(S(=O)(=O)O)cc2)ccc1/N=N/c1c(O)ccc2cc(S(=O)(=O)O)ccc12 | 62%
33 | O=S(=O)(O)c1ccc2c(/N=N/c3ccccc3Cl)c(O)ccc2c1 | 76%
34 | O=C(O)Cc1ccc(OCCCCCOc2ccc(CC(=O)O)cc2)cc1 | 7%
35 | O=C(O)C[S+]([O-])c1ccc2c3c(cccc13)C(=O)c1ccccc1-2 (stereo unspecified) | 67%
36 | CCCCOc1ccc(C(CC(=O)O)CC(=O)O)cc1OC | 98%
37 | COc1cc2cc3c4cc(OC)c(OC)cc4cc[n+]3c(CCC(=O)O)c2cc1OC | 57%
38 | COC[C@H]1OC(=O)c2coc3c2[C@@]1(C)C1=C(C3=O)[C@@H]2CCC(=O)[C@@]2(C)C[C@H]1OC(C)=O | 100%
39 | O=C(NC(Cc1ccc(O)cc1)C(=O)O)C(=O)c1c[nH]c2ccc([N+](=O)[O-])cc12 (stereo unspecified) | 34%

These molecules were tested against T1, Phosphatidylinositol 4,5-bisphosphate 3-kinase catalytic subunit gamma isoform (assay: Inhibition of PI3Kgamma (unknown origin) assessed as decrease in fluorescence intensity using phosphorylated substrate).
Target sequence in this assay (P48736 whole entry, canonical isoform): as the sequence (P48736 whole entry, looked up, canonical isoform) above

Row | SMILES | IC50
40 | COc1cc(O)cc(/C=C2\SC(=S)NC2=O)c1 | 328 nM
41 | O=c1cc(N2CCOCC2)[nH]c2c(Cc3ccccc3)cccc12 | 10900 nM
42 | Cc1cc(F)ccc1Oc1cccc2c(=O)cc(N3CCOCC3)[nH]c12 | 18100 nM
43 | COc1cc(C(CC(=O)O)CC(=O)O)ccc1OCc1ccccc1 | 5880 nM
44 | COc1cc2cc(C(=O)O)[nH]c2cc1OCc1ccccc1 | 105 nM
45 | COc1ccc2cc(C(=O)CCCC(C)C(=O)O)ccc2c1 (stereo unspecified) | 5180 nM
46 | O=C1NC(=S)S/C1=C\c1ccc2c(c1)N(CCc1ccc(F)c(F)c1)C(=O)CO2 | 20.4 nM
47 | COc1ccccc1-n1c(CSc2ncnc3[nH]cnc23)nc2cccc(C)c2c1=O | 1820 nM
48 | O=C1NC(=S)S/C1=C\c1ccc(-c2cc([N+](=O)[O-])ccc2Br)o1 | 3600 nM
49 | COc1ccc(C(CC(=O)O)c2cc(OC)c(OC)c(OC)c2)cc1OC (stereo unspecified) | 6070 nM
50 | O=C1NC(=S)S/C1=C\c1ccc2c(c1)N(Cc1ccc(Cl)cc1)C(=O)CO2 | 30 nM
51 | O=c1c2c(F)cccc2nc(CSc2ncnc3[nH]cnc23)n1-c1ccccc1Cl | 13100 nM
52 | Cc1ccc(CN2C(=O)COc3ccc(/C=C4\SC(=S)NC4=O)cc32)cc1 | 124 nM
53 | O=c1c2c(Cl)cccc2nc(CSc2ncnc3[nH]cnc23)n1-c1ccccc1F | 3630 nM
54 | O=C(COc1ccc(Cl)cc1C(=O)O)Nc1cccc(NC(=O)Nc2cccc(S(=O)(=O)F)c2)c1 | 9160 nM
55 | O=c1c2c(Cl)cccc2nc(CSc2ncnc3[nH]cnc23)n1-c1ccccc1-c1ccccc1 | 7620 nM
56 | O=C1NC(=S)S/C1=C\c1ccc2c(c1)N(CCc1cccc(Cl)c1)C(=O)CO2 | 18 nM
57 | COc1ccccc1-c1ccc(/C=C2\SC(=O)NC2=O)o1 | 1000 nM
58 | O=C1NC(=S)S/C1=C\c1ccc2c(c1)N(CCc1ccccc1)C(=O)CO2 | 103 nM

Row | SMILES | IC50
59 | COc1ccccc1CNc1cc(C)cc2c(=O)cc(N3CCOCC3)[nH]c12 | 10700 nM
60 | COc1cccc(CCN2C(=O)COc3ccc(/C=C4\SC(=S)NC4=O)cc32)c1 | 11.2 nM
61 | O=c1c2c(Cl)cccc2nc(CSc2ncnc3[nH]cnc23)n1-c1ccccc1Cl | 5450 nM
62 | Cc1ccccc1-n1c(CSc2ncnc3[nH]cnc23)nc2cccc(Cl)c2c1=O | 2540 nM
63 | Cc1cc(C)cc(CCN2C(=O)COc3ccc(/C=C4\SC(=S)NC4=O)cc32)c1 | 11.2 nM
64 | Cc1cccc(CN2C(=O)COc3ccc(/C=C4\SC(=S)NC4=O)cc32)c1 | 184 nM
65 | COc1cc(C[C@@H](CC(=O)c2ccc3c(c2)OCO3)C(=O)O)cc(OC)c1OC | 575 nM
66 | Cc1ccc(CN2C(=O)COc3ccc(/C=C4\SC(=S)NC4=O)cc32)cc1C | 11 nM
67 | CC(C)(C)c1ccc(CN2C(=O)COc3ccc(/C=C4\SC(=S)NC4=O)cc32)cc1 | 10.2 nM
68 | Cc1cccc(CCN2C(=O)COc3ccc(/C=C4\SC(=S)NC4=O)cc32)c1 | 20.9 nM
69 | O=C1NC(=S)S/C1=C\c1ccc2c(c1)N(CCc1ccc(Cl)cc1)C(=O)CO2 | 20.1 nM
70 | O=C1NC(=S)S/C1=C\c1ccc2c(c1)N(CCc1ccc(Cl)c(Cl)c1)C(=O)CO2 | 18.4 nM
71 | O=C1NC(=S)S/C1=C\c1ccc2c(c1)N(Cc1ccccc1)C(=O)CO2 | 97 nM
72 | O=C1NC(=S)S/C1=C\c1ccc2c(c1)N(CCc1ccc(Cl)cc1Cl)C(=O)CO2 | 18.1 nM
73 | O=c1cc(N2CCOCC2)[nH]c2c(Oc3ccccc3F)cccc12 | 7260 nM
74 | COc1ccc(C(CC(=O)c2ccc3c(c2)OCO3)C(=O)O)cc1OC (stereo unspecified) | 234 nM
75 | COc1cc(CCN2C(=O)COc3ccc(/C=C4\SC(=S)NC4=O)cc32)cc(OC)c1 | 11.8 nM
76 | COc1ccc(CCN2C(=O)COc3ccc(/C=C4\SC(=S)NC4=O)cc32)cc1 | 27.7 nM
77 | N#Cc1ccc(CN2C(=O)COc3ccc(/C=C4\SC(=S)NC4=O)cc32)cc1 | 152 nM

Row | SMILES | IC50
78 | CC(C)(C)c1ccc(CCN2C(=O)COc3ccc(/C=C4\SC(=S)NC4=O)cc32)cc1 | 140 nM
79 | O=C(O)c1ccccc1SC(Sc1ccccc1C(=O)O)c1cccc(Cl)c1 | 187 nM
80 | O=c1cc(N2CCOCC2)[nH]c2c(Oc3ccc(F)cc3)cccc12 | 18100 nM
81 | O=C1NC(=S)S/C1=C\c1ccc2c(c1)N(Cc1ccc(C(F)(F)F)cc1)C(=O)CO2 | 116 nM
82 | O=C(NC(Cc1ccc(OC(=O)OCc2ccccc2)cc1)C(=O)O)OCc1ccccc1 (stereo unspecified) | 324 nM
83 | CCOc1ccc(Nc2ccc3c(O)cc(S(=O)(=O)O)cc3c2)cc1 | 992 nM
84 | O=C1NC(=S)S/C1=C\c1ccc2c(c1)N(CCc1ccc(C(F)(F)F)cc1)C(=O)CO2 | 8.1 nM
85 | O=c1cc(N2CCOCC2)[nH]c2c(OCc3ccccc3)cccc12 | 10900 nM
86 | Cc1cc(C(=O)O)c(C)cc1SSc1cc(C)c(C(=O)O)cc1C | 1460 nM
87 | O=C1NC(=S)S/C1=C\c1ccc2c(c1)N(CCc1ccc(Br)cc1)C(=O)CO2 | 9.9 nM
88 | CCCCn1c(CSc2ncnc3[nH]cnc23)nc2ccccc2c1=O | 218000 nM
89 | O=C(O)C[S+]([O-])c1ccc2c3c(cccc13)C(=O)c1ccccc1-2 (stereo unspecified) | 1570 nM
90 | Cc1cccc2nc(CSc3ncnc4[nH]cnc34)n(-c3ccccc3Cl)c(=O)c12 | 6170 nM
91 | CCCCOc1ccc(C(CC(=O)O)CC(=O)O)cc1OC | 134 nM
92 | COc1cc2cc3c4cc(OC)c(OC)cc4cc[n+]3c(CCC(=O)O)c2cc1OC | 7330 nM
93 | O=c1c2ccc(F)cc2nc(CSc2ncnc3[nH]cnc23)n1-c1ccccc1Cl | 145000 nM
94 | O=c1c2ccccc2nc(CSc2ncnc3[nH]cnc23)n1N1CCOCC1 | 138000 nM
95 | Cc1ccc(CCN2C(=O)COc3ccc(/C=C4\SC(=S)NC4=O)cc32)cc1 | 37.3 nM
96 | O=c1c2ccccc2nc(CSc2ncnc3[nH]cnc23)n1-c1ccccc1Cl | 27900 nM
